The text below walks through data of US20250288607A1, “METHODS FOR TREATING SEXUAL DYSFUNCTION ASSOCIATED WITH POLYCYSTIC OVARY SYNDROME (PCOS) OR WITH HYPOACTIVE SEXUAL DESIRE DISORDER (HSDD)” (INSTITUT NATIONAL DE LA SANTÉ ET DE LA RECHERCHE MÉDICALE, priority 2022, published 2025).

No end group written: not given here.

One data set concerns cFOS. Put plainly: Percentage of cells expressing cFOS in hypothalamic and limbic areas following the lordosis test. The class given is in vivo, mice. The procedure: Immunohistochemistry. Tissue preparation for immunohistochemistry is shown in SI Appendix. Free-floating immunohistochemistry was performed as described elsewhere (29, 73). Primary antibodies were used at the respective concentrations: polyclonal sheep anti-nNOS (1:2,000; generous gift from Dr. Piers C. Emson and validated elsewhere (74)), polyclonal rabbit anti-PR (1:500; Sigma; catalog #SAB4502184), rabbit anti-red fluorescent protein (RPF) (1:500; Rockland Immunochemicals, Inc.; catalog #600-401-379), and polyclonal chicken anti-GFP (1:1,000; Aves Labs Inc., catalog #GFP-1020). Brain sections were incubated with a cocktail of primary antibodies and 2% normal donkey serum (NDS) in incubation solution (0.25% bovine serum albumin with 0.3% Triton in TBS) over 48 hours at 4° C. Following washes with TBS, brain sections were incubated with secondary antibodies. Alexa Fluor 488 donkey anti-sheep (reference #A11015), Alexa Fluor 647 donkey anti-rabbit, (reference #A31573), Alexa Fluor 568 donkey anti-rabbit (reference #A10042) were all purchased from Thermo Fisher Scientific Inc. and used at 1:400 dilution in TBS solution. Alexa Fluor 488 donkey anti-chicken (Jackson ImmunoResearch Labs; reference #703-545-155) was used at 1:500 dilution in TBS solution. Sections were mounted onto glass slides and left to dry until covered with Fluoromount-G™ with DAPI (Invitrogen/Thermo Fisher Scientific Inc.; reference #00-4959-52), and coverslipped.
Image acquisition and analysis. Two representative brain sections from each region (RP3V, VMH, rARN, mARN, and cARN) were chosen from each animal for Immunohistological analysis. Brain sections were firstly examined using an Axio Imager, Z1 ApoTome microscope (Zeiss, Oberkochen, Germany), and an AxioCam MRm camera (Zeiss). Confocal imaging and analyses Zeiss Spinning-Disk microscope Yokogawa CSU-X1 model (Zeiss; BioImaging Center Lille (BICeL), of the University of Lille, France). High magnification images were acquired taking Z-stacks of 0.5 μm-steps using a 40x-oil objective (1.30 NA). Confocal images were further processed with ImageJ software for cell counting analysis. Final analysis considered the average counting from two representative sections of each region.
We aimed to determine how 8 mg/kg SNAP treatment may change the neuronal activation landscape in the female brain in estrus control and PAMH mice following the lordosis test. […]

The test system of data set [1] is control and PAMH female mice. Put plainly: Female sexual behavior test (lordosis, mild and severe rejection quotients) after pharmacological treatment. The class given is in vivo. The procedure:
(§1) Female sexual behavior test. Estrus female mice were tested for lordosis behavior over the dark phase following previously reported protocols (25, 40). During the annotation of sexual behavior, we also assessed sexual rejection behaviors over the same period of time.
All behavior tests were videotaped and manually annotated using Behavioral Observation Research Interactive Software (BORIS) (76).
(§2) Pharmacological treatments. SNAP: Female mice received a subcutaneous (s.c.) injection with 8 mg/kg S-nitroso-N-Acetyl-DL-Penicillamine (SNAP) (Sigma-Aldrich; catalog ##N3398) diluted in 100 μL of saline 15 minutes before behavioral testing and the chosen dose was based on previous reports (25). Kisspeptin: Female mice received a s.c. injection with 0.52 μg/kg kisspeptin-10 (Kiss-10; rodent metastin (45-54) amide; GeneCust; YY-10-NH2) diluted in 100 μL of saline 30 minutes before behavioral test based on previous reports (25). Sildenafil citrate: Female mice received an i.p. injection with 15 mg/kg sildenafil citrate (Sigma-Aldrich; catalog #171599-83-0) 1h before behavioral assessment based on previous trials from our laboratory (Chachlaki et al., unpublished data). Sildenafil citrate was firstly diluted in dimethyl sulfoxide (DMSO) to make up a stock solution of 25 mg/mL and further diluted with sterile saline to make up a working solution of 15 mg/mL for s.c. injection on the day of the injection.
Previous reports indicate that the control of female sexual behavior is highly dependent upon NOergic signaling in rodents (23-25). Having established the loss of nNOS expression in hypothalamic sites in PAMH mice, we next addressed whether the replenishment of NO levels could rescue normal sexual function in these females. Control and PAMH female mice were injected either with saline or S-nitroso-N-acetylpenicillamine (SNAP; 8 mg/kg), a well-known NO donor to boost circulating NO levels.
NO-mediated physiological responses are mostly dictated by intracellular levels of cyclic guanosine monophosphate (cGMP). Commonly used drugs for male sexual dysfunction, such as sildenafil citrate, commercialized as Viagra®, enhance NOergic signaling by decreasing the degradation of cGMP accumulating intracellular levels of the latest. To determine the severity of NO insufficiency in PAMH mice, we administered sildenafil citrate to both groups and evaluated lordosis behavior.

Data set [2] has as its system nNOS^VMH neurons. Put plainly: Lordosis test after chemogenetic inhibition (hM4D(Gi) DREADD) of nNOS^VMH neurons with CNO. The class given is in vivo, mice. The protocol: as §1
(§3) Chemogenetic manipulations (viral transfection, stereotaxic injections, and behavioral assessment). The AAV9 double floxed Gi-coupled hM4D DREADD fused with fluorescent mCherry protein under the control of human synapsin promoter (AAV-hSyn-DIO-hM4D(Gi)-mCherry) (Addgene; catalog #44362-AAV9) was stereotaxically injected into the vlVMH of Nosl-ires-cre female mice under 4% isoflurane anesthesia with constant airflow. Lordosis test was carried out as described above with sexually experience female mice after three lordosis test trials. Females received i.p. injection with 100 μL of clozapine N-oxide dihydrochloride (CNO; Tocris; catalog #6329), at a dose of 3 mg/kg diluted in sterile saline, one hour before behavioral assessment. Each mouse received either CNO or saline (vehicle) in a random order, and the two behavioral assessments were performed ten days apart.
Among the three hypothalamic areas investigated in our study, the VMH (nNOS^VMH) is considered as the NOergic output responsible to control sexual performance in mammalian females (23), whereas nNOS^RP3V and nNOS^ARN are likely to contribute to the neuroendocrine control of GnRH/LH secretion (57, 58). […] To this end, we selectively targeted the expression of designer receptors exclusively activated by designer drugs (DREADD)-based tool hM4(Gi) into the VMH of Nos1cre/+ (Nos1-ires-cre; B6.129-Nos1tm1(cre)Mgmj/J) female mice (59). Viral transduction was established using a Cre-recombinase-dependent adeno-associated virus serotype 9 in which hM4 (Gi) is fused with mCherry reporter under the control of human synapsin (hSyn) promoter (AAV9-hSyn-DIO-hM4D(Gi)-mCherry) (Data not shown). The control group was composed of wild-type female mice receiving the same stereotaxic surgery. This approach provided an average efficiency of 86.82±2.33% of nNOS^VMH neurons targeted with AAV9-hM4 (Gi)-mCherry and with an off-target infection rate of 5.48±2.17% in non-nNOS^VMH neurons (N=5; Data not shown).
Following viral transfection, Nos1^cre/+ female mice were subjected to two lordosis tests and randomly received either vehicle or the DREADD ligand clozapine N-oxide (CNO; 3 mg/kg) one hour before behavioral assessment.

Data set [3] has as its system nNOS^VMH neurons. Put plainly: Lordosis test with CNO pre-treatment followed by kisspeptin-10 (kisspeptin-nNOS^VMH coupling). Type of data set: in vivo, mice. The protocol:
as §3, §2
Using a similar approach as described above, we stereotaxically delivered the expression of AAV9-hM4(Gi)-mCherry in nNOS^VMH neurons in both Nos1cre/+ and wild-type female mice. […]

The conditions of data set [4]: cited from earlier work.
The mark [5] stands for this setting: PAMH female mice, SNAP 8 mg/kg, P<0.0001, similar to control levels.
[6] abbreviates: control female mice, SNAP 8 mg/kg.
Where [7] appears, read: Nos1cre/+ female mice, CNO 3 mg/kg, P<0.01.
Setting [8] is: wild-type control group with same surgery, CNO 3 mg/kg.

Consider `CC(=O)NC(C(=O)O)C(C)(C)SN=O` (racemic) [SNAP, S-nitroso-N-Acetyl-DL-Penicillamine], for which the “cFOS expression in vlPAG and dmPAG” value with cFOS (PAMH mice, SNAP 8 mg/kg) is “did not alter cFOS expression”; in the data set on cFOS (control mice, SNAP 8 mg/kg vs vehicle, P<0.05), “lower cFOS expression compared with vehicle-treated control mice”. The “proportion of nNOS neurons expressing cFOS (vlVMH, pdMeA)” value in the data set on cFOS (PAMH mice, SNAP 8 mg/kg, P<0.05) is reported as “fully restored the proportion of nNOS cells expressing cFOS to control levels”. For the same compound, the “cFOS expression in MPA, MnPO, vlVMH and pdMeA” value with cFOS (estrus PAMH mice, SNAP 8 mg/kg, after lordosis test) is reported as “increased cFOS expression in all of these four regions in PAMH mice to control levels”. The “lordosis quotient (LQ)” value in data set [1] (PAMH female mice, SNAP 8 mg/kg s.c. 15 minutes before test, mean±SEM) came to 68.17±6.97. Moreover, the “fold increase of lordosis behavior vs saline” value in data set [1] (PAMH female mice, SNAP 8 mg/kg vs saline) is approximately 7.28 fold. Further, the “lordosis behavior (in words)” value in data set [1] (PAMH female mice, SNAP 8 mg/kg, P<0.0001) was “robustly recovered normal lordosis behavior in PAMH female mice similar to control levels”. Further, the “mild rejection behavior (MRQ)” value in data set [1] (setting [5]) is “significantly reduced”; in data set [1] (setting [6]), “did not change these parameters”. In addition, the “severe rejection behavior (SRQ)” value is “significantly reduced” in data set [1] (setting [5]) and “did not change these parameters” in data set [1] (setting [6]).

As to `C[N+]1([O-])CCN(C2=Nc3cc(Cl)ccc3Nc3ccccc32)CC1.Cl.Cl` [CNO, clozapine N-oxide dihydrochloride], in the data set with nNOS^VMH neurons [2] (Nos1cre/+ female mice with AAV9-hM4D(Gi)-mCherry in VMH, CNO 3 mg/kg i.p. one hour before test, P<0.01 vs vehicle), the “lordosis quotient (LQ)” value came out at 4.24±2.26. In the data set with nNOS^VMH neurons [2] (setting [7]), the “mild rejection behavior vs vehicle-injected mice” value is on record as “higher” and the “severe rejection behavior vs vehicle-injected mice” value is “higher”. Also, in the data set on nNOS^VMH neurons [2] (setting [8]), the “lordosis behavior, CNO vs vehicle” value is on record as “did not show any difference between treatments”; the “mild rejection behavior, CNO vs vehicle” value is recorded as “did not show any difference between treatments”; the “severe rejection behavior, CNO vs vehicle” value is “did not show any difference between treatments”. Besides, in the data set with nNOS^VMH neurons [3] (Nos1cre/+ female mice, CNO pre-treatment, P<0.01), the “sexual (lordosis) behavior” value is on record as “caused significant disruption of sexual behavior”. In the data set with nNOS^VMH neurons [3] (control (wild-type) female mice, CNO alone, pre-injection -60 min), the lordosis behavioral output entry is on record as “did not have any effect”.

With `[N]=O` [Nitric oxide], in data set [4], the “half-life in the blood” value is on record as “a few seconds”.

Turning to “rodent metastin (45-54) amide (YNWNSFGLRY-NH2; UniProt Q6Y4S4 110-119, looked up) [kisspeptin-10, kisspeptin-10 peptide from GeneCust]”, the lordosis performance entry in the data set with nNOS^VMH neurons [3] (control (wild-type) female mice, kisspeptin-10 0.52 μg/kg, -30 min, P<0.05) is reported as “significantly enhanced lordosis performance”.
